Entries after “also recorded” stand apart in the source; their conditions may differ.
Experiments:
p300 = p300 (Homo sapiens, UniProt Q09472); assay: In vitro acetylation assay (p300, histone 3 Lys 18 / Lys 27, western blot); assay type: biochemical; details: compound in DMSO; for H3-Lys 27 EC50 / H3-Lys 27 IC50: Lys 27 of histone 3; for EC50: read-out: H3-Lys 18 EC50
Experimental: The aim of the in vitro acetylation assay is to measure the enzymatic activity of the various compounds towards p300. Results are provided in FIG. 3A to FIG. 7B for average values of lysine residue acetylation (continuous line) and their standard error range measured in the absence of compound and DMSO, wherein “n” represents the number of replicates.
First, the drug is prepared:
Second, dilute p300 in AM1 buffer to a concentration of 40 ng/μL (final concentration in the reaction 20 ng/μL). This is accomplished by diluting 1 μL of p300 (at 0.4 μg/μL) into […] of AM1 buffer.
Third, prepare the Master Mix. Prepare the Master Mix in low protein binding tubes (ThermoFisher Cat. No. 90410), 20 μL system.
Incubate reactions at 30° C. for 30 minutes.
Incubate reactions at 30° C. for 1 hour.
Fourth, perform the western blot assay. • Add 6.7 μL of Laemmli Sample Buffer 4× (Bio-Rad Laboratories Cat. No. 161-0737) for each reaction and boil samples at 95° C. for 5 min. • Charge 10 μL for each sample in 2 Tris Glycine 4-15% gels (Bio-Rad Laboratories Cat. No. 456-1086). Running Buffer: Tris-Glycine 1× (pour in the cell up to the writing “2 gels”). • Run at 90 V for 1 hour (until the gel front reaches the green line of cell). • Semi-dry transfer with Trans-Blot® Turbo™ Blotting System from Bio-Rad Laboratories (Trans-Blot® Turbo™ RTA midi PVDF transfer kit Cat. No1704275). • Activate PVDF membrane in methanol for 5 minutes and then wet in Trans-Blot® Turbo™ transfer buffer. • Wet stacks in transfer buffer. • Transfer at 23 V 1.3 A for 7 minutes. • Blocking buffer: 5% Non-Fat milk in TBST (tween 0.1%) 1 hour at room temperature. • Cut the membranes to get Ac-His 3 at 17 kDa and p300 at 300 kDa. • Incubate with primary antibodies overnight at 4° C. • The day after, make 3 washes in TBST (Tween 0.1%) of 10 minutes. • Incubate with secondary antibody at room temperature for 1 hour. • Make 3 washes in TBST (Tween 0.1%) of 5 minutes. • Incubate membranes with ECL (SuperSignal West Dura Extended Duration Substrate from ThermoFisher) for 5 minutes at room temperature. • Acquire the image with ChemiDoc Odyssey Fc 2 minutes.
To detect total H3 (loading control), strip the membranes with Restore™ Western Blot Stripping Buffer according to the manufacturer protocol.
Various compounds were tested for enzymatic activity with respect to Lys 18 and Lys 27 of histone 3. EC50 is indicated for activators and IC50 for inhibitors respectively.

[1] = Stability in human liver microsomes; assay type: in vitro ADME; details: both sexes
Experimental: Compounds were tested for stability in human liver microsomes.
Experimental Procedure • Mixed-gender human liver microsomes (Lot #1210347) were purchased from XenoTech. The reaction mixture, minus NADPH, was prepared as described below. The test article was added into the reaction mixture at a final concentration of 1 μM. The control compound, testosterone, was run simultaneously with the test articles in a separate reaction. An aliquot of the reaction mixture (without cofactor) was equilibrated in a shaking water bath at 37° C. for 3 minutes. The reaction was initiated by the addition of the cofactor, and the mixture was incubated in a shaking water bath at 37° C. Aliquots (100 μL) were withdrawn at 0, 10, 20, 30, and 60 minutes. Test article and testosterone samples were immediately combined with 400 μL of ice-cold 50/50 acetonitrile (ACN)/H2O containing 0.1% formic acid and internal standard to terminate the reaction. […] Half-lives and clearance were calculated using GraphPad software, fitting to a single-phase exponential decay equation. […]
Note (a): When the calculated half-life is longer than the duration of the experiment, the half-life is expressed as being greater than the longest incubation time. Note (b): Intrinsic clearance (CLint) was calculated based on CLint=k/P, where k is the elimination constant and P is the protein concentration in the incubation.

[2] = test system: hippocampal slices from WT mice perfused with oTau; assay: oTau-induced LTP deficit in hippocampal slices
Description: against tau induced synaptic dysfunction. Oligomeric tau caused a defect of LTP. YF2 was applied to hippocampal slices either alone or concurrently with oligomeric tau. […] FIG. 8 is a graph illustrating that YF2 rescues oTau-induced LTP deficits. LTP was impaired in hippocampal slices from WT mice perfused with oTau. The concurrent treatment with YF2 and oTau reestablished normal LTP. There was no impairment in slices treated with YF2 or vehicle. The horizontal solid bar represents oTau perfusion while the horizontal dashed bar represents drug treatment. The three arrows correspond to the theta-burst stimulation. Two-Way ANOVA Vehicle vs. oTau: F(1, 21)=21.32, p=0.0001; Vehicle vs. YF2: F(1, 21)=0.200, p=0.6593; Vehicle vs. YF2+oTau: F(1, 22)=0.3455, p=0.563; YF2 vs. oTau: F(1, 22)=13.72, p=0.0012; YF2 vs. YF2+oTau: F(1, 23)=0.00043, p=0.984; YF2+oTau vs. oTau: F(1, 23)=31.52, p<0.0001.

[3] = test system: mice administered with oTau; assay: 2 day radial arm water maze (RAWM), spatial short-term memory; assay type: in vivo; details: oTau 500 nM, YF2 5 mg/kg
Experimental: Oligomeric tau caused a defect of spatial memory and associative memory. YF2 was injected in mice either alone or concurrently with oligomeric tau. The compound rescued the oligomeric tau induced defect in memory. […] The performance in the RAWM was impaired in mice administered with oTau (500 nM). […] The performance was not impaired when mice were treated with only YF2 or vehicle.

[4] = test system: mice administered with oTau; assay: Contextual fear memory; assay type: in vivo; details: YF2 plus oTau vs oTau, 24 hrs after the electric shock
Description: A statistical significant difference is visible when comparing all groups during testing for contextual fear memory at 24 hrs after the electric shock (ANOVA among all groups: F(3, 53)=3.051 p=0.0364).

[5] = Lys 18 of histone 3, EC50 for activators

Sequence of p300 (Q09472 whole entry, species assumed): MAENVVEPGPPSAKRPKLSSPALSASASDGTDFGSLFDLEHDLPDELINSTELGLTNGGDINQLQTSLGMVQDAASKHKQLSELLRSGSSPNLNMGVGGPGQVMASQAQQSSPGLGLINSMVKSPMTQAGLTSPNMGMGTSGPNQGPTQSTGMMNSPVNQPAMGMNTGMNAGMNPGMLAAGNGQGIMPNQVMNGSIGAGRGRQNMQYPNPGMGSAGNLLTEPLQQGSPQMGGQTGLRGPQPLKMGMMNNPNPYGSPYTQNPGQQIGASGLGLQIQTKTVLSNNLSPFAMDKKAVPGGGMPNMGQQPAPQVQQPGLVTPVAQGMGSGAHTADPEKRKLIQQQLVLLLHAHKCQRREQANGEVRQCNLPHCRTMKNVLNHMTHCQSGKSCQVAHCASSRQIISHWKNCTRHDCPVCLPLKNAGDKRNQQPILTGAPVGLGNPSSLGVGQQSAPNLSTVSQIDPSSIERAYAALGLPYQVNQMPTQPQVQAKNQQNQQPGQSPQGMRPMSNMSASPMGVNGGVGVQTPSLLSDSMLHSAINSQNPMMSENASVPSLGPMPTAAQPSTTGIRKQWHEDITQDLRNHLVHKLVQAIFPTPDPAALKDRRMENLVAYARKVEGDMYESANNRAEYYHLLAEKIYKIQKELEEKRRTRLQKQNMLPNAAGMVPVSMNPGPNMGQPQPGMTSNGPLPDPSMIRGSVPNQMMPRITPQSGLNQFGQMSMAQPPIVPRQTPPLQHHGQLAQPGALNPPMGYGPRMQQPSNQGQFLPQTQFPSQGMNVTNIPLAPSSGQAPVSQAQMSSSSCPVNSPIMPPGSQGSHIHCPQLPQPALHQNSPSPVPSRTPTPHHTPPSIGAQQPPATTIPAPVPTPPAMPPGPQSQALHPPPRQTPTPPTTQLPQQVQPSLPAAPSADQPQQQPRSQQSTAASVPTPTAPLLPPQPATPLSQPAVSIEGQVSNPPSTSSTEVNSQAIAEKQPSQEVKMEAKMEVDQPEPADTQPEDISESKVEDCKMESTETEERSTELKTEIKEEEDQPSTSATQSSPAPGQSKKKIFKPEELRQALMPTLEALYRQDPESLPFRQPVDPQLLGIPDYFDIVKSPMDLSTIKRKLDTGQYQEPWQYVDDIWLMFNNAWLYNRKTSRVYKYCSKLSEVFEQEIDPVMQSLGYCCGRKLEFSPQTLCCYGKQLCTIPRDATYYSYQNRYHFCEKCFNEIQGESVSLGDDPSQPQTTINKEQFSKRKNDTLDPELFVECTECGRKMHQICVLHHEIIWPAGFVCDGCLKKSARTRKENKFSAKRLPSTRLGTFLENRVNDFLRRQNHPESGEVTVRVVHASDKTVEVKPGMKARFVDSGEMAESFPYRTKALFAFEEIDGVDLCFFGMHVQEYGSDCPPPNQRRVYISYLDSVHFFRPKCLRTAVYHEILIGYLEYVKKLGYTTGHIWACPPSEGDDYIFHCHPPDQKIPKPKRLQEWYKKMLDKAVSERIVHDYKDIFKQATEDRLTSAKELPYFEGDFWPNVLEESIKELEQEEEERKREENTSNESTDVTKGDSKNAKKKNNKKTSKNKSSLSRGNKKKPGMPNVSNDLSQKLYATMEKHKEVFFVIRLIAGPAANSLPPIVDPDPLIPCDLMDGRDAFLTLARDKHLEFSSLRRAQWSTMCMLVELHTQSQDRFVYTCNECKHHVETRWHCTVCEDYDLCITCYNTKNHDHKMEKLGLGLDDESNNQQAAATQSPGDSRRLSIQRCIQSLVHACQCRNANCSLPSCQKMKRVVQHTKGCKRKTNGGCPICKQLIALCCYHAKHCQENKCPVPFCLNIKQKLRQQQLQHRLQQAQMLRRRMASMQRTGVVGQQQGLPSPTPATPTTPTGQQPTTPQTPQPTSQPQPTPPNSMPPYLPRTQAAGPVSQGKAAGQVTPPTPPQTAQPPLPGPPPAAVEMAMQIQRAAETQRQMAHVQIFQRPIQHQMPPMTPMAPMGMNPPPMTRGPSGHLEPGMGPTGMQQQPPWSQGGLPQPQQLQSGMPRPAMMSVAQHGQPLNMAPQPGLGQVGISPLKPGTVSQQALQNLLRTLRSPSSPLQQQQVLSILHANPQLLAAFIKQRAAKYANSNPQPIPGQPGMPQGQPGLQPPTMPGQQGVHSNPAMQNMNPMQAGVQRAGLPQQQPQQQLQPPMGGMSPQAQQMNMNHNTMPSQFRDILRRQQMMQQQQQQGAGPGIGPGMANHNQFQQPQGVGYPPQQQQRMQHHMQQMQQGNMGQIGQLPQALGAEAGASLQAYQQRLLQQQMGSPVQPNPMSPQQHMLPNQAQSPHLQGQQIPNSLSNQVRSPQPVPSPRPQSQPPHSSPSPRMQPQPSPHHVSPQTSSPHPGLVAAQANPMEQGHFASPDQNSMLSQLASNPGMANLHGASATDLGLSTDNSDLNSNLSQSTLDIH

## CN(C)CCOc1cccc2c1C(=O)N(c1ccc(Cl)c(C(F)(F)F)c1)C2=O [JF19]
p300; [5]
  H3-Lys 18 EC50: NO ACTIVITY
p300; Lys 18 of histone 3, IC50 for inhibitors
  H3-Lys 18 IC50: NO ACTIVITY
p300; EC50 for activators
  H3-Lys 27 EC50: NO ACTIVITY
p300; IC50 for inhibitors
  H3-Lys 27 IC50: NO ACTIVITY

## C[C@]12CC[C@H]3[C@@H](CCC4=CC(=O)CC[C@@]43C)[C@@H]1CC[C@@H]2O [Testosterone, testosterone]
[1]; pH 7.4, 1 μM, single-phase exponential decay fit
  half-life at 1 μM: 40.6 min
[1]; pH 7.4, CLint=k/P
  microsomal CLint at 1 μM: 34.1 µL/min/mg

## CCOc1cccc(OCCN2CCOCC2)c1C(C)Nc1ccc(O)c(C(F)(F)F)c1 (centres unmarked) [JF2]
p300; [5]
  EC50: 138 nM
p300; EC50 for activators
  H3-Lys 27 EC50: NO ACTIVITY
p300; IC50 for inhibitors
  H3-Lys 27 IC50: NO ACTIVITY

## CCOc1cccc(OCCN(C)C)c1C(=O)Nc1ccc(Cl)c(C(F)(F)F)c1 [YF2]
[2]; hippocampal slices treated with YF2 alone
  LTP with compound alone: no impairment
[2]; hippocampal slices, concurrent treatment with YF2 and oTau
  effect on oligomeric tau induced defect in long-term potentiation: rescued the oligomeric tau induced defect in long-term potentiation; also recorded: rescues oligomeric-Tau (oTau)-induced LTP deficits
[3]
  RAWM performance, oTau-induced deficit: rescued the deficit; also recorded: rescues oTau-induced defects
[4]
  contextual fear memory (freezing), oTau-induced deficit: rescues oTau-induced deficit in contextual fear memory; also recorded: rescues oTau-induced defects in contextual fear memory

## FC(F)(F)c1cc(N2COc3ccccc3C2)ccc1Cl [JF17]
p300; [5]
  EC50: 103 nM

From patent US20220125748A1, “HISTONE ACETYLTRANSFERASE (HAT) REGULATORS AND USES THEREOF” (The Trustees of Columbia University in the City of New York, priority 2019, published 2022)
